Test results published in patent publication US6469174B1, “Substituted pyrrolobenzimidazoles for treating inflammatory diseases” (Ortho-McNeil Pharmaceutical, Inc., priority 1998, dated 2002).
Like-named read-outs stand apart in the source and are kept apart here.

Columns and labels:
TNF-α [1] = assay: In vitro whole cell assay: LPS-stimulated TNF-α production in PBMC (ELISA); format: cell-based; conditions: LPS-stimulated human PBMC
Experimental: In addition to the enzyme assay, many of the compounds of the invention were tested in an in vitro whole cell assay using peripheral blood mononuclear cells (“PBMC”) which were obtained from human blood as follows. Freshly obtained venous blood was anticoagulated with heparin, diluted with an equal volume of phosphate buffered saline (“PBS”) and placed in a sterile tube or other container. Aliquots (30 mL) of this mixture were transferred to centrifuge tubes which were underlaid with Ficoll-Hypaque (15 mL). The prepared tubes were centrifuged at 400×g without braking for 30 minutes at room temperature. Approximately ½ to ⅔ of the platelet layer above the mononuclear cell band was removed with a pipet. The majority of the mononuclear cell layer was carefully removed using a pipet and these PBMC's were diluted with PBS and spun at 600×g for 15 minutes. The resulting PBMC's were washed with another portion of PBS and spun at 400×g for 10 minutes at room temperature. The recovered pellets were diluted in low endotoxin RPMI/1% FCS culture medium and gave a cell concentration of 0.5-2.0×10^6 PBMC/ mL. A small volume of the suspension was removed for counting on a hemocytometer and the remaining preparation was centrifuged at 200×g for 15 minutes at room temperature. The recovered pelleted PBMC's were resuspended in RPMI/1% FCS to a concentration of 1.67×10^6/mL.
To run the assay, the PBMC suspension (180 μL) was transferred to duplicate wells of a 96-well flat-bottom microtiter plate and incubated for 1 hour at 37° C. A solution of test compound (10 μL: prepared at 20×the desired final concentration) was added to each well and the plate was incubated for 1 hour at 37° C. A solution (10 μL) of LPS in RPMI/1% FCS (200 ng/mL) was added and the wells were incubated overnight at 37° C. The supernatant (100 μL) was removed from each well and diluted with RPMI/1% FCS (400 μL). The samples were analyzed for TNF-α using a commercial ELISA kit (Genzyme).
Certain compounds of the invention are listed in Tables A and B. The compounds were tested for their ability to inhibit TNF-α in vitro. The data are listed as an IC50 or as the % inhibition at a given concentration.

TNF-α [2] = assay: In vivo LPS-induced TNF-α production, oral dosing; conditions: mouse, LPS 1 mg/kg i.p.
Experimental: Mice (BALB/cJ females, Jackson Laboratories) or rats (Lewis males, Charles River) were fasted for 30 minutes prior to oral dosing with 5-10 mL/kg of test compound at 5-50 mg/kg. Thirty minutes after dosing, the animals were injected intraperitoneally with LPS at 1 mg/kg and returned to their cages for 1 hour. Animals were anesthetized by CO2, exsanguinated by cardiac puncture and whole blood collected (0.1-0.7 mL). The blood was allowed to clot and serum was transferred to a centrifuge tube. This sample was centrifuged, serum was collected, aliquoted and frozen at −80° C. Samples were tested by commercial ELISA's for TNF-α (Endogen for mouse TNF-α and Biosource for rat TNF-α).

p38 = p38 (Homo sapiens, UniProt Q16539); assay: In vitro enzyme assay: inhibition of p38 activity; format: biochemical
Experimental: Compounds of the invention were measured for their ability to inhibit the activity of p38 by the following in vitro assay.
A solution (38 μL) of purified recombinant p38 (where the amount of enzyme was determined empirically considering the linear range of the assay and the acceptable signal to noise ratio; 6×His-p38 expressed in E. coli), myelin basic protein substrate (also determined empirically), and a buffer of pH 7.5 (Hepes:25 mM, MgCl2:10 mM, MnCl2:10 mM) were added to 92 wells of a 96-well round bottom polypropylene plate. The remaining wells were used for control (“CTRL”) and background (“BKG”).
The CTRL was prepared with the enzyme, substrate buffer and 2% DMSO, and the BKG was prepared with substrate buffer and 2% DMSO. […]
The contents of each well were transferred to the wells of a 96-well filterplate (Millipore, MultiScreen-DP) and the filterplate was placed on a vacuum manifold, fitted with a waste collection tray. […] MicroScint-20 scintillant was added, the plates were sealed using Topseal-S sheets and counted in a Packard TopCount scintillation counter using a ^33P liquid program with color quench correction, where the output is in color quench-corrected cpm.
The % inhibition of the test compounds was calculated by the following formula: % inhibition=[1−(sample −BKG)/(CTRL−BKG)]×100.

[3] = Table B, read-out: IC50 (TNF-α in vitro)

Sequence of p38 (Q16539 whole entry): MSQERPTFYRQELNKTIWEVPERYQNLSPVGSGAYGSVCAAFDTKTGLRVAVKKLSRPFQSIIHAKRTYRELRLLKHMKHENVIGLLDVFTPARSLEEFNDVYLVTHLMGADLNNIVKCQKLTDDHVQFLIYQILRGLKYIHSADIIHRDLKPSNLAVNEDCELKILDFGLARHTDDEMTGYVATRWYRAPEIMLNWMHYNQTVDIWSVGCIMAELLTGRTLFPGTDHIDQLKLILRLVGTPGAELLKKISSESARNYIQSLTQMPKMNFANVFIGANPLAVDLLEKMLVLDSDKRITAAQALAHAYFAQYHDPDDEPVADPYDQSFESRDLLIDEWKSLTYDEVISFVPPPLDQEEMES

Fc1ccc(-c2c(-c3ccncc3)[nH]c3ccc4c(ncn4CCCc4ccccc4)c23)cc1 [Compound 11, 3,6-dihydro-8-(4-fluorophenyl)-3-(3-phenylpropyl)-7-(4-pyridyl)-pyrrolo[3,2-e]benzimidazole]
inhibition at 0.4 µM (TNF-α [1]; @ 400 nM, Table B, read-out: % inhibition of TNF-α at a given concentration): 0%

CCCCc1nc2ccc3[nH]c(-c4ccc(F)cc4)c(-c4ccncc4)c3c2[nH]1 [Compound 4, 1,6-dihydro-7-(4-fluorophenyl)-8-(4-pyridyl)-2-butyl-pyrrolo[3,2-e]benzimidazole]
IC50 (TNF-α [1]; Table A, read-out: TNF-α IC50): 45 nM

Fc1ccc(-c2[nH]c3ccc4nc(-c5ccccc5)[nH]c4c3c2-c2ccncc2)cc1 [Compound 2, 1,6-dihydro-7-(4-fluorophenyl)-8-(4-pyridyl)-2-phenyl-pyrrolo[3,2-e]benzimidazole]
IC50 (TNF-α [1]; Table A, read-out: TNF-α IC50): 20 nM

Fc1ccc(-c2[nH]c3ccc4nc(CCc5ccccc5)[nH]c4c3c2-c2ccncc2)cc1 [Compound 7, 1,6-dihydro-7-(4-fluorophenyl)-8-(4-pyridyl)-2-(2-phenylethyl)-pyrrolo[3,2-e]benzimidazole]
IC50 (TNF-α [1]; Table A, read-out: TNF-α IC50): 50 nM

Fc1ccc(-c2c(-c3ccncc3)[nH]c3ccc4nc(Cc5ccccc5)[nH]c4c23)cc1 [Compound 10, 1,6-dihydro-7-(4-pyridyl)-8-(4-fluorophenyl)-2-phenylmethyl-pyrrolo[3,2-e]benzimidazole]
IC50 (TNF-α [1]; [3]): > 400 nM

Fc1ccc(-c2c(-c3ccncc3)[nH]c3ccc4nc[nH]c4c23)cc1 [Compound 9, 1,6-dihydro-7-(4-pyridyl)-8-(4-fluorophenyl)-pyrrolo[3,2-e]benzimidazole]
IC50 (TNF-α [1]; [3]): 15 nM

Fc1ccc(-c2[nH]c3ccc4[nH]c(Cc5ccccc5)nc4c3c2-c2ccncc2)cc1 [Compound 1, 1,6-Dihydro-7-(4-fluorophenyl)-8-(4-pyridyl)-2-phenylmethyl-pyrrolo [3,2-e] benzimidazole]
inhibition of TNF-α (TNF-α [2]; 10 mg/kg): 74% | inhibition of TNF-α (TNF-α [2]; 25 mg/kg): 91% | inhibition at 20 µM (p38): 44% | IC50 (TNF-α [1]; Table A, read-out: TNF-α IC50): 7 nM
